Patent publication US20240391926A1, “SPIROINDOLINONE COMPOUNDS AS Kv1.3 POTASSIUM SHAKER CHANNEL BLOCKERS” (D.E. Shaw Research, LLC, priority 2021, published 2024)
pIC50: −log10 of the molar value.

Columns and labels:
Kv1.3 potassium channel = target: T1, Kv1.3 potassium channel (Homo sapiens, UniProt P22001); assay: Kv1.3 potassium channel blocker activity, automated whole-cell patch clamp (Patchliner) in CHO-K1 cells stably expressing Kv1.3; format: cell-based; details: 30 nM-100 μM
T1 construct: expressed in transfected cells
In short: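 Whole-cell automated patch clamp in CHO-K1 cells, pH 7.4 external/7.2 internal; 100 ms steps from −90 to +40 mV at 0.1 Hz, 20-pulse trains. Cumulative 30 nM–100 μM on one cell, ≤10 s per concentration; last-pulse current normalized to control, IC50 from Hill fit.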

hERG channel = target: T2, hERG channel (Homo sapiens, UniProt Q12809); assay: hERG electrophysiology, automated whole-cell patch clamp (Patchliner) in CHO-K1 cells stably expressing hERG; format: cell-based; details: 30 nM-100 μM
T2 construct: expressed in transfected cells
Description: This assay is used to evaluate the disclosed compounds' inhibition activities against the hERG channel.
CHO-K1 cells stably expressing hERG were grown in Ham's F-12 Medium with glutamine containing 10% heat-inactivated FBS, 1% penicillin/streptomycin, hygromycin (100 μg/ml) and G418 (100 μg/ml). Cells were grown in culture flasks at 37° C. in a 5% CO2-humidified incubator.
The cells were bathed in an extracellular solution containing 140 mM NaCl, 4 mM KCl, 2 mM CaCl2), 1 mM MgCl2, 5 mM Glucose, 10 mM HEPES; pH adjusted to 7.4 with NaOH; 295-305 mOsm. The internal solution contained 50 mM KCl, 10 mM NaCl, 60 mM KF, 20 mM EGTA, 10 mM HEPES; pH adjusted to 7.2 with KOH; 285 mOsm. All compounds were dissolved in DMSO at 30 mM. Compound stock solutions were freshly diluted with external solution to concentrations of 30 nM, 100 nM, 300 nM, 1 μM, 3 μM, 10 μM, 30 μM and 100 μM. The highest content of DMSO (0.3%) was present in 100 μM.
The voltage protocol (see Table B) was designed to simulate voltage changes during a cardiac action potential with a 300 ms depolarization to +20 mV (analogous to the plateau phase of the cardiac action potential), a repolarization for 300 ms to −50 mV (inducing a tail current) and a final step to the holding potential of −80 mV. The pulse frequency was 0.3 Hz. Control (compound-free) and compound pulse trains for each compound concentration applied contained 70 pulses.
Whole-cell current recordings and compound application were enabled by means of an automated patch clamp platform Patchliner (Nanion). EPC 10 patch clamp amplifier (HEKA) along with Patchmaster software (HEKA Elektronik Dr. Schulze GmbH) was used for data acquisition. Data were sampled at 10 kHz without filtering. Increasing compound concentrations were applied consecutively to the same cell without washouts in between.
AUC and PEAK values were obtained with Patchmaster (HEKA Elektronik Dr. Schulze GmbH). To determine IC50 the last single pulse in the pulse train corresponding to a given compound concentration was used. Obtained AUC and PEAK values in the presence of compound were normalized to control values in the absence of compound. Using Origin (OridinLab), IC50 was derived from data fit to Hill equation: Icompound/Icontrol=(100−A)/(1+([compound]/IC50)nH)+A, where IC50 is the concentration at which current inhibition is half-maximal, [compound] is the applied compound concentration, A is the fraction of current that is not blocked and nH is the Hill coefficient.

T2 sequence (Q12809 whole entry): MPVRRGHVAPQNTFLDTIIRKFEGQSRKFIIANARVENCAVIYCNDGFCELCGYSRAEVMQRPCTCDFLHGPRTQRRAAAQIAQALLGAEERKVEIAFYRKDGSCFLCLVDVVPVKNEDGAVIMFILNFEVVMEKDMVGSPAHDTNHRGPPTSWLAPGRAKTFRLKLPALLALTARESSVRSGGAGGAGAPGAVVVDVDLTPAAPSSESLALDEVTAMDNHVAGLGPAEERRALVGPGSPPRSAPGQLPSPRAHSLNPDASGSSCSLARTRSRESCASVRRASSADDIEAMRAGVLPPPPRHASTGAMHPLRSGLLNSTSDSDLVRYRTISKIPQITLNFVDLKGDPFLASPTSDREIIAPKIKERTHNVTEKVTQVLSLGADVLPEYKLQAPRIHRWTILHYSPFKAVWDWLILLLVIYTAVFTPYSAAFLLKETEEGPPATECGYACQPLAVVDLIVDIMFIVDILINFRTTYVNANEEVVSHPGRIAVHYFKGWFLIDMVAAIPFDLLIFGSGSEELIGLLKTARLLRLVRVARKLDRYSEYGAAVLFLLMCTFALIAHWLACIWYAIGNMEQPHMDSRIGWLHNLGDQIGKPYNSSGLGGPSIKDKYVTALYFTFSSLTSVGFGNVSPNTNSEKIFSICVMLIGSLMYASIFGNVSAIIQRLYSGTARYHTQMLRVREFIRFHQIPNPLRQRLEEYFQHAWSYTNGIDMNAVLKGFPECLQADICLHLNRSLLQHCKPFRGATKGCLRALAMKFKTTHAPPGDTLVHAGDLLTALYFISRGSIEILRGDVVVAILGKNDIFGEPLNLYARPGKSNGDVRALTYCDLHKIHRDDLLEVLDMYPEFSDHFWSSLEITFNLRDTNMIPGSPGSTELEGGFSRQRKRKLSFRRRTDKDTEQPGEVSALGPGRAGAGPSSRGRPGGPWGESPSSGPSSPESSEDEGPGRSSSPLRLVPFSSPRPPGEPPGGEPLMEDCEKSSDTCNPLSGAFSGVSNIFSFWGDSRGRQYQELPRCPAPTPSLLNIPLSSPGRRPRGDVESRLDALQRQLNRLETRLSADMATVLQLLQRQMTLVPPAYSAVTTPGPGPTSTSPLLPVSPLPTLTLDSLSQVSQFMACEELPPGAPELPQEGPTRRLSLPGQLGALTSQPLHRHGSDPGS
T1 sequence (P22001 whole entry): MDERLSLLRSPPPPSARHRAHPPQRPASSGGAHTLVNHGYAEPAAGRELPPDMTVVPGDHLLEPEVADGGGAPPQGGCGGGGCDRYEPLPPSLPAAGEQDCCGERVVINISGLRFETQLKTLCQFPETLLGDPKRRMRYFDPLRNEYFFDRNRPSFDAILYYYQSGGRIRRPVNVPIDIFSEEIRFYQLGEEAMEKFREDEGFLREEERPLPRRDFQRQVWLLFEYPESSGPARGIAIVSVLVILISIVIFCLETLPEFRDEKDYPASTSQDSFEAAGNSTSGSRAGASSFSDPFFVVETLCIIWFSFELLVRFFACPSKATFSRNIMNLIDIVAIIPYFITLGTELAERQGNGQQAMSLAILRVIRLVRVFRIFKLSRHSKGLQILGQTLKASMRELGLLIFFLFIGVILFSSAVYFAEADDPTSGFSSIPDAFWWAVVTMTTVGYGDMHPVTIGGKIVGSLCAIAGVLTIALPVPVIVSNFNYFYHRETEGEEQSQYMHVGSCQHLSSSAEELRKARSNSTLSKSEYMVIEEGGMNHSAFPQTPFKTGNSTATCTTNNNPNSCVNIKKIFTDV

pIC50 (Kv1.3 potassium channel)	Compound	pIC50 (hERG channel)
> 6.00	O=C([C@H]1CCNC1)N1CC[C@]2(C1)C(=O)Nc1cc(Cl)c(Cl)cc12 [Compound 15, (S)-5,6-dichloro-1′-((S)-pyrrolidine-3-carbonyl)spiro[indoline-3,3′-pyrrolidin]-2-one]	< 4.00
> 6.52	O=C([C@@H]1CCCNC1)N1CC[C@]2(C1)C(=O)Nc1cc(Cl)c(Cl)cc12 [Compound 17, (S)-5,6-dichloro-1′-((R)-piperidine-3-carbonyl)spiro[indoline-3,3′-pyrrolidin]-2-one]	< 4.00
> 6.00	O=C(C1CCNCC1)N1CC[C@]2(C1)C(=O)Nc1cc(Cl)c(Cl)cc12 [Compound 21, (S)-5,6-dichloro-1′-(piperidine-4-carbonyl)spiro[indoline-3,3′-pyrrolidin]-2-one]	< 4.00
> 6.00	O=C(c1cn[nH]c1)N1CC[C@]2(C1)C(=O)Nc1cc(Cl)c(Cl)cc12 [Compound 35, (S)-5,6-dichloro-1′-(1H-pyrazole-4-carbonyl)spiro[indoline-3,3′-pyrrolidin]-2-one]	< 4.00
> 6.52	Nc1cc(C(=O)N2CC[C@]3(C2)C(=O)Nc2cc(Cl)c(Cl)cc23)ccn1 [Compound 42, (S)-1′-(2-aminoisonicotinoyl)-5,6-dichlorospiro[indoline-3,3′-pyrrolidin]-2-one]	< 5.00
> 6.52	O=C(N1CC[C@]2(C1)C(=O)Nc1cc(Cl)c(Cl)cc12)[C@]1(F)CCCNC1 [Compound 49, (S)-5,6-dichloro-1′-((S)-3-fluoropiperidine-3-carbonyl)spiro[indoline-3,3′-pyrrolidin]-2-one]	< 5.52
> 6.00	O=C1Nc2cc(Cl)c(Cl)cc2[C@]12CCN(C(=O)[C@H]1CC[C@H](O)CC1)C2 [Compound 52, (S)-5,6-dichloro-1′-((1r,4S)-4-hydroxycyclohexane-1-carbonyl)Spiro[indoline-3,3′-pyrrolidin]-2-one]	< 4.52
> 5.52	O=C(c1cc[nH]n1)N1CC[C@]2(C1)C(=O)Nc1cc(Cl)c(Cl)cc12 [Compound 53, (S)-5,6-dichloro-1′-(1H-pyrazole-3-carbonyl)spiro[indoline-3,3′-pyrrolidin]-2-one]	< 5.00
> 5.52	O=C(CCCO)N1CC[C@]2(C1)C(=O)Nc1cc(Cl)c(Cl)cc12 [Compound 56, (S)-5,6-dichloro-1′-(4-hydroxybutanoyl)spiro[indoline-3,3′-pyrrolidin]-2-one]	< 4.00
> 6.52	O=C(C[C@@H]1CCNC1)N1CC[C@]2(C1)C(=O)Nc1cc(Cl)c(Cl)cc12 [Compound 60, (S)-5,6-dichloro-1′-(2-((S)-pyrrolidin-3-yl)acetyl)spiro[indoline-3,3′-pyrrolidin]-2-one]	< 4.00
> 6.52	O=C(C[C@H]1CCNC1)N1CC[C@]2(C1)C(=O)Nc1cc(Cl)c(Cl)cc12 [Compound 62, (S)-5,6-dichloro-1′-(2-((R)-pyrrolidin-3-yl)acetyl)spiro[indoline-3,3′-pyrrolidin]-2-one]	< 4.00
> 6.00	O=C(c1ccnc(CO)c1)N1CC[C@]2(C1)C(=O)Nc1cc(Cl)c(Cl)cc12 [Compound 67, (S)-5,6-dichloro-1′-(2-(hydroxymethyl)isonicotinoyl)spiro[indoline-3,3′-pyrrolidin]-2-one]	< 4.00
> 6.00	Cc1[nH]ncc1C(=O)N1CC[C@]2(C1)C(=O)Nc1cc(Cl)c(Cl)cc12 [Compound 71, (S)-5,6-dichloro-1′-(5-methyl-1H-pyrazol-4-carbonyl)spiro[indoline-3,3′-pyrrolidin]-2-one]	< 4.52
> 6.00	O=C1Nc2cc(Cl)c(Cl)cc2[C@]12CCN(C(=O)[C@H]1C[C@](O)(CO)C1)C2 [Compound 93, (3S)-5,6-dichloro-1′-[(1r,3r)-3-hydroxy-3-(hydroxymethyl)cyclobutanecarbonyl]-1H-spiro[indole-3,3′-pyrrolidin]-2-one]	< 4.00
> 6.00	O=C1Nc2cc(Cl)c(Cl)cc2[C@]12CCN(C(=O)[C@H]1C[C@@](O)(CO)C1)C2 [Compound 94, (3S)-5,6-dichloro-1′-[(1s,3s)-3-hydroxy-3-(hydroxymethyl)cyclobutanecarbonyl]-1H-spiro[indole-3,3′-pyrrolidin]-2-one]	< 4.00
> 6.52	O=C([C@@H]1C[C@@H](O)[C@@H](O)C1)N1CC[C@]2(C1)C(=O)Nc1cc(Cl)c(Cl)cc12 [Compound 101, (3S)-5,6-dichloro-1′-[(1S,3R,4S)-3,4-dihydroxycyclopentanecarbonyl]-1H-spiro[indole-3,3′-pyrrolidin]-2-one]	< 4.00
> 6.00	O=C([C@H]1C[C@@H](O)[C@@H](O)C1)N1CC[C@]2(C1)C(=O)Nc1cc(Cl)c(Cl)cc12 [Compound 102, (3S)-5,6-dichloro-1′-[(1R,3R,43)-3,4-dihydroxycyclopentanecarbonyl]-1H-spiro[indole-3,3′-pyrrolidin]-2-one]	< 4.00
> 6.00	COC[C@@H]1C[C@H](C(=O)N2CC[C@]3(C2)C(=O)Nc2cc(Cl)c(Cl)cc23)CN1 [Compound 109, (3S)-5,6-dichloro-1′-[(3S,5S)-5-(methoxymethyl)pyrrolidine-3-carbonyl]-1H-spiro[indole-3,3′-pyrrolidin]-2-one]	< 4.52
> 6.52	COC[C@H]1C[C@H](C(=O)N2CC[C@]3(C2)C(=O)Nc2cc(Cl)c(Cl)cc23)CN1 [Compound 112, (S)-5,6-dichloro-1′-((3S,5R)-5-(methoxymethyl)pyrrolidine-3-carbonyl)spiro[indoline-3,3′-pyrrolidin]-2-one]	< 4.00
> 7.00	O=C([C@@H]1CN[C@H](CO)C1)N1CC[C@]2(C1)C(=O)Nc1cc(Cl)c(Cl)cc12 [Compound 113, (3S)-5,6-dichloro-1-[(3S,53)-5-(hydroxymethyl)pyrrolidine-3-carbonyl]-1H-spiro[indole-3,3-pyrrolidin]-2-one]	< 4.00
> 6.52	O=C([C@H]1CN[C@H](CO)C1)N1CC[C@]2(C1)C(=O)Nc1cc(Cl)c(Cl)cc12 [Compound 114, (3S)-5,6-dichloro-1′-[(3R,5S)-5-(hydroxymethyl)pyrrolidine-3-carbonyl]-1H-spiro[indole-3,3′-pyrrolidin]-2-one]	< 4.00
> 7.00	O=C([C@@H]1CN[C@@H](CO)C1)N1CC[C@]2(C1)C(=O)Nc1cc(Cl)c(Cl)cc12 [Compound 115, (S)-5,6-dichloro-1′-((3S,5R)-5-(hydroxymethyl)pyrrolidine-3-carbonyl)spiro[indoline-3,3′-pyrrolidin]-2-one]	< 4.00
> 7.00	O=C([C@H]1CN[C@@H](CO)C1)N1CC[C@]2(C1)C(=O)Nc1cc(Cl)c(Cl)cc12 [Compound 116, (S)-5,6-dichloro-1′-((3R,5R)-5-(hydroxymethyl)pyrrolidine-3-carbonyl)spiro[indoline-3,3′-pyrrolidin]-2-one]	< 4.00
> 5.52	Cc1cc2c(cc1Cl)[C@]1(CCN(C(=O)CO)C1)C(=O)N2 [Compound 120, (S)-5-chloro-1′-(2-hydroxyacetyl)-6-methylspiro[indoline-3,3′-pyrrolidin]-2-one]	< 4.00
> 6.52	O=C(CO)N1CC[C@]2(C1)C(=O)Nc1c2cc(Cl)c(Cl)c1Cl [Compound 121, (3S)-5,6,7-trichloro-1′-(2-hydroxyacetyl)-1H-spiro[indole-3,3′-pyrrolidin]-2-one]	< 5.00
> 6.52	O=C(CO)N1CC[C@]2(C1)C(=O)Nc1c2cc(Cl)c(Cl)c1F [Compound 128, (S)-5,6-dichloro-7-fluoro-1′-(2-hydroxyacetyl)spiro[indoline-3,3′-pyrrolidin]-2-one]	< 4.00
> 6.52	Cc1c(Cl)c(Cl)cc2c1NC(=O)[C@@]21CCN(C(=O)CO)C1 [Compound 129, (3S)-5,6-dichloro-1′-(2-hydroxyacetyl)-7-methyl-1H-spiro[indole-3,3′-pyrrolidin]-2-one]	< 4.00
